Assay results from patent US8952024B2, “Herbicidal pyrimidone derivatives” (E I du Pont de Nemours and Company, priority 2009, dated 2015).

How the values were obtained:
Experiment in all cases: Test B pre-/postemergence plant response
Type in all cases: in vivo
[1] = test system: woolly cupgrass (Eriochloa villosa)
Summary of the method: (§1)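 Pre-em in loam/sand; post-em at 1–4 leaf (2–18 cm) in peat mix. Solvent + surfactant formulation. Greenhouse 13–15 d; visual % control vs untreated, 0–100.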

[2] = test system: pigweed (Amaranthus retroflexus)
Summary of the method: as §1

[3] = test system: sunflower (common oilseed sunflower, Helianthus annuus); conditions: Preemergence; for Sunflower plant response rating: 125 g ai/ha
Summary of the method: as §1

[4] = test system: lambsquarters (Chenopodium album)
Summary of the method: as §1

[5] = test system: Italian ryegrass (Lolium multiflorum)
Summary of the method: as §1

[6] = test system: large crabgrass (Digitaria sanguinalis)
Summary of the method: as §1

[7] = test system: Surinam grass (Brachiaria decumbens)
Summary of the method: as §1

[8] = test system: nightshade (eastern black nightshade, Solanum ptycanthum); conditions: Preemergence; for Nightshade plant response rating: 125 g ai/ha
Summary of the method: as §1

[9] = test system: goosegrass (Eleusine indica)
Summary of the method: as §1

[10] = test system: corn (Zea mays)
Summary of the method: as §1

[11] = test system: galium (catchweed bedstraw, Galium aparine); conditions: Preemergence; for Galium plant response rating: 125 g ai/ha
Summary of the method: as §1

[12] = test system: goosegrass (Eleusine indica); conditions: Preemergence, 62 g ai/ha; scale 0 to 100, 0 no effect, 100 complete control
[13] = 250 g ai/ha, Preemergence, 0 to 100 scale
[14] = Postemergence, 31 g ai/ha, scale 0 to 100 (0 no effect, 100 complete control)
[15] = Postemergence, 62 g ai/ha, scale 0 (no effect) to 100 (complete control), 13 to 15 days
[16] = Postemergence, 125 g ai/ha, visual rating after 13 to 15 days, scale 0 (no effect) to 100 (complete control)
[17] = Postemergence, 250 g ai/ha, scale 0 to 100
[18] = Preemergence, 31 g ai/ha, scale 0 to 100 (0 no effect, 100 complete control)
[19] = Preemergence, 62 g ai/ha, scale 0 to 100, 0 no effect, 100 complete control
[20] = Preemergence, 125 g ai/ha, 0 to 100 scale
[21] = 31 g ai/ha, scale 0 to 100 (0 no effect, 100 complete control)
[22] = 62 g ai/ha, scale 0 to 100, 0 no effect, 100 complete control

O=C1CCCC([O-])=C1C(=O)c1cnc(-c2ccccc2)n(-c2ccccc2)c1=O.[K+] [Compound 14]
Plant response rating, Cupgrass, Woolly [1, 13]: 70 | Plant response rating, Cupgrass, Woolly [1, 14]: 50 | Plant response rating, Cupgrass, Woolly [1, 15]: 80 | Plant response rating, Cupgrass, Woolly [1, 16]: 80 | Cupgrass, Woolly plant response rating [1, 17]: 80 | Plant response rating, Cupgrass, Woolly [1, 18]: 0 | Plant response rating, Cupgrass, Woolly [1, 19]: 5 | Cupgrass, Woolly plant response rating [1, 20]: 50 | Plant response rating, Pigweed [2, 13]: 100 | Plant response rating, Pigweed [2, 14]: 80 | Plant response rating, Pigweed [2, 15]: 80 | Plant response rating, Pigweed [2, 16]: 80 | Pigweed plant response rating [2, 17]: 98 | Plant response rating, Pigweed [2, 18]: 90 | Plant response rating, Pigweed [2, 19]: 98 | Pigweed plant response rating [2, 20]: 100 | Plant response rating, Sunflower ([3]; 250 g ai/ha, 0 to 100 scale): 98 | Plant response rating, Sunflower [3, 21]: 50 | Plant response rating, Sunflower [3, 22]: 85 | Sunflower plant response rating ([3]; 0 to 100 scale): 85 | Plant response rating, Lambsquarters [4, 13]: 100 | Plant response rating, Lambsquarters [4, 14]: 85 | Plant response rating, Lambsquarters [4, 15]: 85 | Plant response rating, Lambsquarters [4, 16]: 85 | Lambsquarters plant response rating [4, 17]: 85 | Plant response rating, Lambsquarters [4, 18]: 100 | Plant response rating, Lambsquarters [4, 19]: 100 | Lambsquarters plant response rating [4, 20]: 100 | Plant response rating, Ryegrass, Italian [5, 13]: 0 | Plant response rating, Ryegrass, Italian [5, 14]: 0 | Plant response rating, Ryegrass, Italian [5, 15]: 5 | Plant response rating, Ryegrass, Italian [5, 16]: 5 | Ryegrass, Italian plant response rating [5, 17]: 50 | Plant response rating, Ryegrass, Italian [5, 18]: 0 | Plant response rating, Ryegrass, Italian [5, 19]: 0 | Ryegrass, Italian plant response rating [5, 20]: 0 | Plant response rating, Crabgrass, Large [6, 13]: 100 | Plant response rating, Crabgrass, Large [6, 14]: 50 | Plant response rating, Crabgrass, Large [6, 15]: 55 | Plant response rating, Crabgrass, Large [6, 16]: 85 | Crabgrass, Large plant response rating [6, 17]: 85 | Plant response rating, Crabgrass, Large [6, 18]: 5 | Plant response rating, Crabgrass, Large [6, 19]: 50 | Crabgrass, Large plant response rating [6, 20]: 100 | Plant response rating, Surinam Grass [7, 13]: 80 | Plant response rating, Surinam Grass [7, 14]: 40 | Plant response rating, Surinam Grass [7, 15]: 50 | Plant response rating, Surinam Grass [7, 16]: 50 | Surinam Grass plant response rating [7, 17]: 55 | Plant response rating, Surinam Grass [7, 18]: 0 | Plant response rating, Surinam Grass [7, 19]: 5 | Surinam Grass plant response rating [7, 20]: 60 | Plant response rating, Nightshade ([8]; 250 g ai/ha, 0 to 100 scale): 100 | Plant response rating, Nightshade [8, 21]: 85 | Plant response rating, Nightshade [8, 22]: 98 | Nightshade plant response rating ([8]; 0 to 100 scale): 100 | Plant response rating, Goosegrass [9, 13]: 100 | Plant response rating, Goosegrass [9, 14]: 80 | Plant response rating, Goosegrass [9, 15]: 80 | Plant response rating, Goosegrass [9, 16]: 80 | Goosegrass plant response rating [9, 17]: 85 | Plant response rating, Goosegrass [9, 18]: 70 | Goosegrass plant response rating [9, 20]: 98 | Plant response rating, Corn [10, 13]: 10 | Plant response rating, Corn [10, 14]: 10 | Plant response rating, Corn [10, 15]: 40 | Plant response rating, Corn [10, 16]: 45 | Corn plant response rating [10, 17]: 70 | Plant response rating, Corn [10, 18]: 0 | Plant response rating, Corn [10, 19]: 0 | Corn plant response rating [10, 20]: 0 | Plant response rating, Galium ([11]; 250 g ai/ha, 0 to 100 scale): 80 | Plant response rating, Galium [11, 21]: 0 | Plant response rating, Galium [11, 22]: 0 | Galium plant response rating ([11]; 0 to 100 scale): 40 | Plant response rating, Goosegrass [12]: 85

Cc1cccc(-n2c(-c3cccc(Cl)c3)ncc(C(=O)C3=C(O)CCCC3=O)c2=O)c1 [Compound 45]
Plant response rating, Cupgrass, Woolly [1, 13]: 75 | Plant response rating, Cupgrass, Woolly [1, 14]: 70 | Plant response rating, Cupgrass, Woolly [1, 15]: 75 | Plant response rating, Cupgrass, Woolly [1, 16]: 75 | Cupgrass, Woolly plant response rating [1, 17]: 80 | Plant response rating, Cupgrass, Woolly [1, 18]: 45 | Plant response rating, Cupgrass, Woolly [1, 19]: 45 | Cupgrass, Woolly plant response rating [1, 20]: 60 | Plant response rating, Pigweed [2, 13]: 100 | Plant response rating, Pigweed [2, 15]: 98 | Plant response rating, Pigweed [2, 16]: 100 | Plant response rating, Pigweed [2, 18]: 85 | Pigweed plant response rating [2, 20]: 100 | Plant response rating, Sunflower ([3]; 250 g ai/ha, 0 to 100 scale): 75 | Plant response rating, Sunflower [3, 21]: 0 | Sunflower plant response rating ([3]; 0 to 100 scale): 10 | Plant response rating, Lambsquarters [4, 13]: 100 | Plant response rating, Lambsquarters [4, 15]: 98 | Plant response rating, Lambsquarters [4, 16]: 100 | Lambsquarters plant response rating [4, 17]: 100 | Plant response rating, Lambsquarters [4, 18]: 100 | Plant response rating, Lambsquarters [4, 19]: 100 | Lambsquarters plant response rating [4, 20]: 100 | Plant response rating, Ryegrass, Italian [5, 13]: 0 | Plant response rating, Ryegrass, Italian [5, 15]: 30 | Plant response rating, Ryegrass, Italian [5, 16]: 35 | Plant response rating, Ryegrass, Italian [5, 18]: 0 | Ryegrass, Italian plant response rating [5, 20]: 0 | Plant response rating, Crabgrass, Large [6, 13]: 100 | Plant response rating, Crabgrass, Large [6, 14]: 65 | Plant response rating, Crabgrass, Large [6, 15]: 75 | Plant response rating, Crabgrass, Large [6, 16]: 75 | Crabgrass, Large plant response rating [6, 17]: 85 | Plant response rating, Crabgrass, Large [6, 18]: 45 | Plant response rating, Crabgrass, Large [6, 19]: 95 | Crabgrass, Large plant response rating [6, 20]: 100 | Plant response rating, Surinam Grass [7, 13]: 98 | Plant response rating, Surinam Grass [7, 15]: 75 | Plant response rating, Surinam Grass [7, 16]: 95 | Plant response rating, Surinam Grass [7, 18]: 45 | Surinam Grass plant response rating [7, 20]: 98 | Plant response rating, Nightshade ([8]; 250 g ai/ha, 0 to 100 scale): 100 | Plant response rating, Nightshade [8, 21]: 98 | Plant response rating, Nightshade [8, 22]: 100 | Nightshade plant response rating ([8]; 0 to 100 scale): 100 | Plant response rating, Goosegrass [9, 13]: 100 | Plant response rating, Goosegrass [9, 15]: 75 | Plant response rating, Goosegrass [9, 16]: 80 | Goosegrass plant response rating [9, 17]: 90 | Plant response rating, Goosegrass [9, 18]: 80 | Goosegrass plant response rating [9, 20]: 100 | Plant response rating, Corn [10, 13]: 0 | Plant response rating, Corn [10, 14]: 10 | Plant response rating, Corn [10, 15]: 45 | Plant response rating, Corn [10, 16]: 60 | Corn plant response rating [10, 17]: 80 | Plant response rating, Corn [10, 18]: 0 | Plant response rating, Corn [10, 19]: 0 | Corn plant response rating [10, 20]: 0 | Plant response rating, Galium ([11]; 250 g ai/ha, 0 to 100 scale): 85 | Plant response rating, Galium [11, 21]: 40 | Plant response rating, Galium [11, 22]: 40 | Galium plant response rating ([11]; 0 to 100 scale): 50 | Plant response rating, Goosegrass [12]: 100
